Measurements reported in US9944646B2, “Bicyclic azaheterocyclobenzylamines as PI3K inhibitors” (Incyte Corporation, priority 2012, dated 2018).
Where a name gives a salt, the structure may show the parent alone.

Target: PI3Kδ (p110δ/p85α) (Homo sapiens (Human), UniProt O00329)
Assay: PI3Kδ Scintillation Proximity Assay (Example A3)
Format: biochemical
Excerpt: Example A3: PI3Kδ Scintillation Proximity Assay
[γ-^33P]ATP (10 mCi/mL) was purchased from Perkin-Elmer (Waltham, Mass.). Lipid kinase substrate, D-myo-Phosphatidylinositol 4,5-bisphosphate (PtdIns(4,5)P2)D (+)-sn-1,2-di-O-octanoylglyceryl, 3-O-phospho linked (PIP2), CAS 204858-53-7, was purchased from Echelon Biosciences (Salt Lake City, Utah). PI3Kδ (p110δ/p85α) was purchased from Millipore (Bedford, Mass.). ATP, MgCl2, DTT, EDTA, MOPS and CHAPS were purchased from Sigma-Aldrich (St. Louis, Mo.). Wheat Germ Agglutinin (WGA) YSi SPA Scintillation Beads was purchased from GE healthcare life sciences (Piscataway, N.J.).
The kinase reaction was conducted in polystyrene 384-well matrix white plate from Thermo Fisher Scientific in a final volume of 25 μL. Inhibitors were first diluted serially in DMSO and added to the plate wells before the addition of other reaction components. The final concentration of DMSO in the assay was 0.5%. The PI3K assays were carried out at room temperature in 20 mM MOPS, pH 6.7, 10 mM MgCl2, 5 mM DTT and CHAPS 0.03%. Reactions were initiated by the addition of ATP, the final reaction mixture consisted of 20 µM PIP2, 20 µM ATP, 0.2 μCi [γ-^33P]ATP, 4 nM PI3Kδ. Reactions were incubated for 210 min and terminated by the addition of 40 μL SPA beads suspended in quench buffer: 150 mM potassium phosphate pH 8.0, 20% glycerol. 25 mM EDTA, 400 µM ATP. The final concentration of SPA beads was 1.0 mg/mL. After the plate sealing, plates were shaken overnight at room temperature and centrifuged at 1800 rpm for 10 minutes, the radioactivity of the product was determined by scintillation counting on Topcount (Perkin-Elmer). IC50 determination was performed by fitting the curve of percent control activity versus the log of the inhibitor concentration using the GraphPad Prism 3.0 software. […] IC50 data for Examples 1-25 is presented in Table 3 for PI3Kδ as determined by the assay of Example A2 or A3 as indicated

Sequence of PI3Kδ (p110δ/p85α) (O00329 whole entry): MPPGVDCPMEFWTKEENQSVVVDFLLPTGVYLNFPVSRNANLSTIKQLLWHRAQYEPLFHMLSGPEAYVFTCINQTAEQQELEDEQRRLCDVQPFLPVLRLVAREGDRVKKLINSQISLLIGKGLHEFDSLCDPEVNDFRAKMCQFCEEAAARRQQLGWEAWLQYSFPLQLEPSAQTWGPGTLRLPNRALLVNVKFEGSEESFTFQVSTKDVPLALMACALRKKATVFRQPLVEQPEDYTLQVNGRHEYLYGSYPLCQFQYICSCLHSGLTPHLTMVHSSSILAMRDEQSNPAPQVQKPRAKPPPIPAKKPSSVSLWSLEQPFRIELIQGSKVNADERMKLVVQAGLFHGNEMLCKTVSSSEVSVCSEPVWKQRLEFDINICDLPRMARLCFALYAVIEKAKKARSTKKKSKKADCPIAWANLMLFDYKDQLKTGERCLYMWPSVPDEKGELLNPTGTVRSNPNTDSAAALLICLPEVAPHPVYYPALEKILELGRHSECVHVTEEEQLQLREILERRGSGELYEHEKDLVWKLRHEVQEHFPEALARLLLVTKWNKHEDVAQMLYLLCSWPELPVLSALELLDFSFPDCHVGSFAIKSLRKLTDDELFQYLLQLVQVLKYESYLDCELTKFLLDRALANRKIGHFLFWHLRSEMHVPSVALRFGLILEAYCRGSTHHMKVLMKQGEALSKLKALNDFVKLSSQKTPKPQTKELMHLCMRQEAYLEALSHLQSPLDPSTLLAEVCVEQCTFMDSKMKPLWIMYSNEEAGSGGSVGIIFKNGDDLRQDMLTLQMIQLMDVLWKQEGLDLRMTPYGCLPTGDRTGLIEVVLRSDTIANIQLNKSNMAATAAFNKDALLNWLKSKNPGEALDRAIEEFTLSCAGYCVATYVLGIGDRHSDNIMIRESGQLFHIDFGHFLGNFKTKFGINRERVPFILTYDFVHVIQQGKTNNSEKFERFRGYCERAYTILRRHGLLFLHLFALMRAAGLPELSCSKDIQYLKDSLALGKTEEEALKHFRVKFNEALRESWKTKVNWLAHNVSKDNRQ
Sequence of PI3Kδ (p110δ/p85α) (P27986 whole entry partner): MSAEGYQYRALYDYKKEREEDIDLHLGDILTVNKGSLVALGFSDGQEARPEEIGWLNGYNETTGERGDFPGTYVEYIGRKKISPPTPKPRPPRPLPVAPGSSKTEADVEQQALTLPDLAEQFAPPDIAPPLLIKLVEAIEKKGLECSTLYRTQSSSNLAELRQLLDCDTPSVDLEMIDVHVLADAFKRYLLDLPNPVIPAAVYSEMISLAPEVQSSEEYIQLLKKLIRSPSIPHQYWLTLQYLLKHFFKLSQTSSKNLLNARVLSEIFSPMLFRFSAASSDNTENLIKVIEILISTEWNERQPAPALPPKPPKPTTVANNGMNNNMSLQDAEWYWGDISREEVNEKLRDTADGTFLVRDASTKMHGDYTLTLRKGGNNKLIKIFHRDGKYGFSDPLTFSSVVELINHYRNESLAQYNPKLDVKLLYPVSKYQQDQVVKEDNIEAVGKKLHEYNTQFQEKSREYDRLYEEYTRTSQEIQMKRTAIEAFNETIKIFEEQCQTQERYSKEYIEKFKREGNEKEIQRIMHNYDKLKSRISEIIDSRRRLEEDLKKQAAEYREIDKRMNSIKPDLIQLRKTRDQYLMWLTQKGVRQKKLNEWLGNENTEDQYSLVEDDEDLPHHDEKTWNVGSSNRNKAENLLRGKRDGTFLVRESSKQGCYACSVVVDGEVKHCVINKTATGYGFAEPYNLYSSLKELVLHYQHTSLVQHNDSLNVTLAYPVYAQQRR

Row | Structure (SMILES) | IC50 [nM]
1 | Cc1c(Cl)cc(C(C)n2nc(C)c3c(N)ncnc32)c2c1CN(C(C)C)CCO2 (centres unmarked) [Example 10, 1-[1-(7-Chloro-4-isopropyl-6-methyl-2,3,4,5-tetrahydro-1,4-benzoxazepin-9-yl)ethyl]-3-methyl-1H-pyrazolo[3,4-d]pyrimidin-4-amine bis(trifluoroacetate)] | ≤ 100
2 | CC(=O)N1CC(N2CCOc3c(C(C)n4nc(C)c5c(N)ncnc54)cc(Cl)c(C)c3C2)C1 (centres unmarked) [Example 4, 1-{1-[4-(1-Acetylazetidin-3-yl)-7-chloro-6-methyl-2,3,4,5-tetrahydro-1,4-benzoxazepin-9-yl]ethyl}-3-methyl-1H-pyrazolo[3,4-d]pyrimidin-4-amine] | ≤ 100
3 | Cc1c(Cl)cc(C(C)n2nc(C)c3c(N)ncnc32)c2c1CN(C1CCC1)CCO2 (centres unmarked) [Example 5, 1-[1-(7-Chloro-4-cyclobutyl-6-methyl-2,3,4,5-tetrahydro-1,4-benzoxazepin-9-yl)ethyl]-3-methyl-1H-pyrazolo[3,4-d]pyrimidin-4-amine bis(trifluoroacetate)] | ≤ 100
4 | Cc1c(Cl)cc(C(C)n2nc(C)c3c(N)ncnc32)c2c1CN(C)CCO2 (centres unmarked) [Example 9, 1-[1-(7-Chloro-4,6-dimethyl-2,3,4,5-tetrahydro-1,4-benzoxazepin-9-yl)ethyl]-3-methyl-1H-pyrazolo[3,4-d]pyrimidin-4-amine bis(trifluoroacetate)] | ≤ 100
5 | Cc1c(Cl)cc(C(C)n2nc(C)c3c(N)ncnc32)c2c1CN(CC#N)CCO2 (centres unmarked) [Example 11, [9-[1-(4-Amino-3-methyl-1H-pyrazolo[3,4-d]pyrimidin-1-yl)ethyl]-7-chloro-6-methyl-2,3-dihydro-1,4-benzoxazepin-4(5H)-yl]acetonitrile bis(trifluoroacetate)] | ≤ 100
6 | COC1CCC(N2CCOc3c(C(C)n4nc(C)c5c(N)ncnc54)cc(Cl)c(C)c3C2)CC1 (centres unmarked) [Example 8, 1-{1-[7-Chloro-4-(4-methoxycyclohexyl)-6-methyl-2,3,4,5-tetrahydro-1,4-benzoxazepin-9-yl]ethyl}-3-methyl-1H-pyrazolo[3,4-d]pyrimidin-4-amine bis(trifluoroacetate)] | ≤ 100
7 | Cc1c(Cl)cc(C(C)n2nc(C)c3c(N)ncnc32)c2c1CN(C1CCCCC1)CCO2 (centres unmarked) [Example 7, 1-[1-(7-Chloro-4-cyclohexyl-6-methyl-2,3,4,5-tetrahydro-1,4-benzoxazepin-9-yl)ethyl]-3-methyl-1H-pyrazolo[3,4-d]pyrimidin-4-amine bis(trifluoroacetate)] | ≤ 100
8 | Cc1c(Cl)cc(C(C)n2nc(C)c3c(N)ncnc32)c2c1CN(C(=O)CC#N)CCO2 (centres unmarked) [Example 12, 3-[9-[1-(4-Amino-3-methyl-1H-pyrazolo[3,4-d]pyrimidin-1-yl)ethyl]-7-chloro-6-methyl-2,3-dihydro-1,4-benzoxazepin-4(5H)-yl]-3-oxopropanenitrile trifluoroacetate] | ≤ 100
9 | CC(=O)N1CCOc2c(C(C)n3nc(C)c4c(N)ncnc43)cc(Cl)c(C)c2C1 (centres unmarked) [Example 19, 1-[1-(4-Acetyl-7-chloro-6-methyl-2,3,4,5-tetrahydro-1,4-benzoxazepin-9-yl)ethyl]-3-methyl-1H-pyrazolo[3,4-d]pyrimidin-4-amine trifluoroacetate] | ≤ 100
10 | Cc1c(Cl)cc(C(C)n2nc(C)c3c(N)ncnc32)c2c1CN(C1CN(C(=O)OC(C)(C)C)C1)CCO2 (centres unmarked) [Example 3, tert-Butyl 3-[9-[1-(4-amino-3-methyl-1H-pyrazolo[3,4-d]pyrimidin-1-yl)ethyl]-7-chloro-6-methyl-2,3-dihydro-1,4-benzoxazepin-4(5H)-yl]azetidine-1-carboxylate] | ≤ 100
11 | Cc1c(Cl)cc(C(C)n2nc(C)c3c(N)ncnc32)c2c1CNCCO2 (centres unmarked) [Example 2, 1-[1-(7-Chloro-6-methyl-2,3,4,5-tetrahydro-1,4-benzoxazepin-9-yl)ethyl]-3-methyl-1H-pyrazolo[3,4-d]pyrimidin-4-amine bis(trifluoroacetate)] | ≤ 100
12 | Cc1c(Cl)cc(C(C)n2nc(C)c3c(N)ncnc32)c2c1CN(C(=O)OC(C)(C)C)CCO2 (centres unmarked) [Example 1, tert-Butyl 9-[1-(4-amino-3-methyl-1H-pyrazolo[3,4-d]pyrimidin-1-yl)ethyl]-7-chloro-6-methyl-2,3-dihydro-1,4-benzoxazepine-4(5H)-carboxylate] | 100 to 500

Further lines, results first:

Row | IC50 [nM] | Structure (SMILES)
13 | ≤ 100 | Cc1c(Cl)cc(C(C)n2nc(C)c3c(N)ncnc32)c2c1CN(S(C)(=O)=O)CCO2 (centres unmarked) [Example 13, 1-{1-[7-Chloro-6-methyl-4-(methylsulfonyl)-2,3,4,5-tetrahydro-1,4-benzoxazepin-9-yl]ethyl}-3-methyl-1H-pyrazolo[3,4-d]pyrimidin-4-amine trifluoroacetate]
14 | ≤ 100 | COCC(=O)N1CCOc2c(C(C)n3nc(C)c4c(N)ncnc43)cc(Cl)c(C)c2C1 (centres unmarked) [Example 21, 1-{1-[7-Chloro-4-(methoxyacetyl)-6-methyl-2,3,4,5-tetrahydro-1,4-benzoxazepin-9-yl]ethyl}-3-methyl-1H-pyrazolo[3,4-d]pyrimidin-4-amine trifluoroacetate]
15 | ≤ 100 | Cc1ccccc1NC(=O)N1CCOc2c(C(C)n3nc(C)c4c(N)ncnc43)cc(Cl)c(C)c2C1 (centres unmarked) [Example 15, 9-[1-(4-Amino-3-methyl-1H-pyrazolo[3,4-d]pyrimidin-1-yl)ethyl]-7-chloro-6-methyl-N-(2-methylphenyl)-2,3-dihydro-1,4-benzoxazepine-4(5H)-carboxamide trifluoroacetate]
16 | ≤ 100 | CCC(=O)N1CCOc2c(C(C)n3nc(C)c4c(N)ncnc43)cc(Cl)c(C)c2C1 (centres unmarked) [Example 20, 1-[1-(7-Chloro-6-methyl-4-propionyl-2,3,4,5-tetrahydro-1,4-benzoxazepin-9-yl)ethyl]-3-methyl-1H-pyrazolo[3,4-d]pyrimidin-4-amine trifluoroacetate]
17 | ≤ 100 | Cc1c(Cl)cc(C(C)n2nc(C)c3c(N)ncnc32)c2c1CN(C(=O)C(C)C)CCO2 (centres unmarked) [Example 22, 1-[1-(7-Chloro-4-isobutyryl-6-methyl-2,3,4,5-tetrahydro-1,4-benzoxazepin-9-yl)ethyl]-3-methyl-1H-pyrazolo[3,4-d]pyrimidin-4-amine trifluoroacetate]
18 | ≤ 100 | Cc1noc(C)c1S(=O)(=O)N1CCOc2c(C(C)n3nc(C)c4c(N)ncnc43)cc(Cl)c(C)c2C1 (centres unmarked) [Example 17, 1-(1-{7-Chloro-4-[(3,5-dimethylisoxazol-4-yl)sulfonyl]-6-methyl-2,3,4,5-tetrahydro-1,4-benzoxazepin-9-yl}yl)ethyl)-3-methyl-1H-pyrazolo[3,4-d]pyrimidin-4-amine trifluoroacetate]
19 | ≤ 100 | Cc1c(Cl)cc(C(C)n2nc(C)c3c(N)ncnc32)c2c1C(=O)NCCO2 (centres unmarked) [Example 25, 9-[1-(4-Amino-3-methyl-1H-pyrazolo[3,4-d]pyrimidin-1-yl)ethyl]-7-chloro-6-methyl-3,4-dihydro-1,4-benzoxazepin-5(2H)-one trifluoroacetate]
20 | ≤ 100 | Cc1c(Cl)cc(C(C)n2nc(C)c3c(N)ncnc32)c2c1CN(S(=O)(=O)c1ccccc1)CCO2 (centres unmarked) [Example 14, 1-{1-[7-Chloro-6-methyl-4-(phenylsulfonyl)-2,3,4,5-tetrahydro-1,4-benzoxazepin-9-yl]ethyl}-3-methyl-1H-pyrazolo[3,4-d]pyrimidin-4-amine trifluoroacetate]

Target: PI3Kδ (Homo sapiens (Human), UniProt O00329)
Assay: PI3K Enzyme Assay (Example A2), [γ-33P]ATP filter plate
Format: biochemical
Outline: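 Recombinant PI3Kδ at 2.9 nM with 50 µM PIP2 in MOPS pH 6.7, MgCl2, DTT, CHAPS, 0.5% DMSO; started with 1000 μM ATP including [γ-33P]ATP, 180 min at room temperature. Phosphorylated product captured on PVDF filter plates and scintillation-counted; IC50 from percent-control activity vs log concentration.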

Sequence of PI3Kδ (O00329 whole entry): as the sequence (O00329 whole entry) above
Sequence of PI3Kδ (P27986 whole entry partner): as the sequence (P27986 whole entry partner) above

Row | Structure (SMILES) | IC50 [nM]
21 | Cc1nn(C(C)c2cc(Cl)c(F)c3c2O[C@@H](C)CN(C2CC(C(N)=O)C2)C3)c2ncnc(N)c12 (single isomer, unassigned) [Example 44] | ≤ 100
22 | Cc1nn(C(C)c2cc(Cl)c(C#N)c3c2OC(C)CN(C2CN(C(=O)NC(C)C)C2)C3)c2ncnc(N)c12 (single isomer, unassigned) [Example 101, 3-[9-[1-(4-amino-3-methyl-1H-pyrazolo[3,4-d]pyrimidin-1-yl)ethyl]-7-chloro-6-cyano-2-methyl-2,3-dihydro-1,4-benzoxazepin-4(5H)-yl]-N-isopropylazetidine-1-carboxamide] | ≤ 100
23 | Cc1nn(C(C)c2cc(Cl)c(F)c3c2OCCN(C2CN(C(=O)N(C)C)C2)C3)c2ncnc(N)c12 (centres unmarked) [Example 73, 3-[9-[1-(4-amino-3-methyl-1H-pyrazolo[3,4-d]pyrimidin-1-yl)ethyl]-7-chloro-6-fluoro-2,3-dihydro-1,4-benzoxazepin-4(5H)-yl]-N,N-dimethylazetidine-1-carboxamide] | ≤ 100
